Measured values from patent US5686458A, “Quinazoline deriviates for treating peptic ulcer” (Yuhan Corporation, priority 1992, dated 1997).
Where a name gives a salt, the structure may show the parent alone.

Experiments:
[1] = target: T1, Proton Pump (H^+ /K^+ ATPase) (Oryctolagus cuniculus, UniProt P27112); experiment: Inhibition of Proton Pump (H+/K+ ATPase) Activity, in vitro enzyme reaction (Experiment 1); format: biochemical, New Zealand white rabbit; conditions: for Effect ratio: IC50 of Omeprazole / IC50 of test compound; for IC50: K+-stimulated H+/K+ ATPase activity, rabbit gastric microsomes, pH 7.2, 37° C., 15 min prereaction, 30 min reaction, read-out: IC50 of test compound, inhibition (50%) of the proton pump activity
T1 construct: The microsomes thus obtained were used as an enzyme source of the in vitro enzyme reaction study of proton pump; from tissue; host or cells: rabbit stomach, mucosal scrapings, microsomes (180,000 g pellet)
Protocol: A New Zealand white rabbit was killed by blowing its head and the stomach was taken out. The contents of the stomach were removed and the stomach walls were washed with was saline. The inner wall of the stomach was scratched out with a slide glass and the cells thus obtained were homogenized in 0.25M sucrose buffer by means of a Teflon-glass homogenizer. The homogenous solution was centrifuged at 10,000 g for 10 minutes and the supernatant was further centrifuged at 20,000 g for 20 minutes. The supernatant thus obtained was centrifuged at an ultra-high speed of 180,000 g for 1 hour. The pellets precipitated were collected by discarding the supernatant and suspended in 50 mM Tris-HCl buffer having pH 7.2. The suspension was dialyzed twice with the same buffer(of 1,000 times volume) for 3 hours and stored into liquid nitrogen.
The above centrifugation and dialysis were carried out at 4° C. The microsomes thus obtained were used as an enzyme source of the in vitro enzyme reaction study of proton pump.
The inhibitory effects of proton pump activity by the compounds of the present invention were measured by the in vitro enzyme reaction study. The proton pump activity stimulated by Mg^++ was used as a negative comparative group, and the activity stimulated by Mg^++ and K^+ was used as a positive comparative group. The comparative compound was omeprazole.
Test tubes were divided into 4 groups: Group 1 as negative comparative group(n=3), Group 2 as positive comparative group(n=3), Group 3(n=5) to be administered with the compound of the present invention and Group 4(n=5) to be administered with the comparative compound. The inhibitory effects of proton pump activity of Groups 3 and 4 were measured by employing the compound prepared in Example 34 and omeprazole, respectively, each of which was dissolved in dimethylsulfoxide at 5 different concentrations.
To each of Groups 1, 2, 3 and 4, were added 0.1 ml of magnesium chloride(40 mM) dissolved in 50 mM Tris-HCl buffer (pH 7.2) and […] of the enzyme source prepared in Experiment 1-1. Then, 0.1 ml of potassium chloride(500 mM) and 0.1 ml of ammonium chloride(100 mM) dissolved in 50 mM Tris-HCl buffer(pH 7.2) were added to all groups except for Group 1.
0.1 ml of dimethylsulfoxide was added to each of Groups 1 and 2; and to Group 3 was added 0.01 ml of the solution in which the compound prepared in Example 34 was dissolved in dimethylsulfoxide at 5 different concentrations. To Group 4, 0.01 ml of the solution prepared by dissolving omprazole in dimethylsulfoxide at 5 different concentrations(37.6, 21.4, 12.2, 7.0 and 4.0 μM) was added. 50 mM Tris-HCl buffer was added thereto so as to make the total volume 0.4 ml.
Thereafter, the test tubes of each Group were placed at 37° C. for 15 minutes for the prereaction. 0.1 ml of ATP solution(33.3 mM), which was prepared by adding Tris-ATP 50 mM to Tris-HCl buffer having pH 7.2, was added until the reaction volume became 0.5 ml. The final concentrations of MgCl2, KCl, NH4 Cl, ATP, enzyme and Tris-HCl were 8 mM, 100 mM, 20 mM, 6.7 mM, 100μg/ml and 50 mM, respectively. After the reaction was carried out at 37° C. for 30 minutes, 25% cold trichloroacetic acid was added to terminate the enzyme reaction. The released inorganic phosphate was measured by an automatic analyzer(SBA 300, Gilford).
The difference between Group 1 and Group 2 represents the proton pump activity activated by K^+ only. The inhibition percentages of Groups 3 and 4 were calculated from Litchfield-wilcoxon equation[see J. Pharmacol. Exptl. Ther. 96, 99(1949)]. The concentrations of the test compounds which inhibit 50% of the proton pump activity are represented as IC50 in Table 1.

gastric secretion = experiment: Inhibition of Gastric Secretion, pylorus-ligated rats (Experiment 2); format: in vivo, Sprague-Dawley rats; conditions: relative to omeprazole (equation III), 20 mg/kg intraduodenally, pylorus-ligated rats, 5 hours
Protocol: In accordance with the method disclosed in Shay, H., et al., Gastroenterology 5, 43-61(1945), Experiment 2 was carried out.
Sprague-Dawley rats having a body weight of 170±10 g were divided into 3 groups(n=5) and deprived of food for 24 hours before the experiment with free access to water. Under ether anesthesia, the abdomen was incised, and the pylorus was ligated. As a comparative group, Group 1 was administered intraduodenally in a volume of 0.5 ml/200 g of 30% aqueous polyethylene glycol 400 solution. Groups 2 and 3 were administered intraduodenally with the compound of Example 34 and omeprazole, respectively, each of which was suspended in 30% aqueous polyethylene glycol 400 solution at a concentration of 20 mg/kg. After closing the abdominal cavity, the rats were placed for 5 hours and then killed by cervical dislocation. The stomach was extracted to obtain gastric juice.
The gastric juice was centrifuged at 1,000 g to remove precipitates. The amount and acidity of the gastric juice were measured. Relative volumes, relative acid concentrations and relative acid outputs of the test compounds were calculated from equations(I), (II) and (III) and the results are shown in Table 2.
(I) = the average amount of gastric juice of Group 1 - the
average amount of gastric juice of Group 2)/(the average
amount of gastric juice of Group 1 - the average amount
of gastric juice of Group 3)
Relative acid concentration
(II) = (the average acidity of Group 1 - the average
acidity of Group 2)/(the average acidity of Group 1 - the average
(III) = (the total amount of acid output of Group 1 - the
total amount of acid output of Group 2)/(the total amount of acid
output of Group 1 - the total amount of acid output of Group

T1 sequence (P27112 whole entry): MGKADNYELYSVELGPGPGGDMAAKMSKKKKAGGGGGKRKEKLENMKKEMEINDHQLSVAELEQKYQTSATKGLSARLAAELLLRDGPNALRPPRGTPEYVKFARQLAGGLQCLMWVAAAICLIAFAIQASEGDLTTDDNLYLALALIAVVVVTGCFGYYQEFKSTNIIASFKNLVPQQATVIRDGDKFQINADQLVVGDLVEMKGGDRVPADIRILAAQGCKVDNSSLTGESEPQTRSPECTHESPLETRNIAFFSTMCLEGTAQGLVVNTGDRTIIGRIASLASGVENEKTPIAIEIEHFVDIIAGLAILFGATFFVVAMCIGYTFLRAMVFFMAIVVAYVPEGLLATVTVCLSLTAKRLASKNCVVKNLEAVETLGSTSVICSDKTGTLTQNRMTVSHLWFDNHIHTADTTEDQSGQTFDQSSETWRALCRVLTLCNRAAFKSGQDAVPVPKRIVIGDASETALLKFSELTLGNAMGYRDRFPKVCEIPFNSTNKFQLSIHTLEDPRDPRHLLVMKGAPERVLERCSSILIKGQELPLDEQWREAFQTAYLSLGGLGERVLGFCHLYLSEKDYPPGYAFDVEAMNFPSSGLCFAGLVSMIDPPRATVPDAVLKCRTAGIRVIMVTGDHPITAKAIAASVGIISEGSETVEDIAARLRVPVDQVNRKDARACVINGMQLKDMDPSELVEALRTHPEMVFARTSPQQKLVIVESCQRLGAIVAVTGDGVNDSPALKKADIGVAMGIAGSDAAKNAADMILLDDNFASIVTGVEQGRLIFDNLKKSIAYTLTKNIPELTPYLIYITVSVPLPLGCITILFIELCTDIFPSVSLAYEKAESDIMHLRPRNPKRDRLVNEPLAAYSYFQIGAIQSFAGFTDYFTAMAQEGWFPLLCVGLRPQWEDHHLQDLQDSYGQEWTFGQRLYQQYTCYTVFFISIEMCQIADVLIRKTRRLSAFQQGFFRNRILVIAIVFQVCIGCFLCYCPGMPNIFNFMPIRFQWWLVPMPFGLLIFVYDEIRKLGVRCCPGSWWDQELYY
T1 sequence (P18597 whole entry partner): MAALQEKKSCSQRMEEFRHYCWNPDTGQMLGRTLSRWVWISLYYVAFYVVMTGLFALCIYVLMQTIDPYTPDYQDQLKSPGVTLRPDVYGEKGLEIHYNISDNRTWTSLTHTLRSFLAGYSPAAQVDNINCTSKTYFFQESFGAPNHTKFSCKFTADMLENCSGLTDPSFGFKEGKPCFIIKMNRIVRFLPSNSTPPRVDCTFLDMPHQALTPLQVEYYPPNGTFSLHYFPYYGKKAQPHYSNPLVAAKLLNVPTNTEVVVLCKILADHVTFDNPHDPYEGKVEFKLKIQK

SMILES	Effect ratio [1]	IC50 [1] [nM]	Relative Acid Output (gastric secretion)
Cl.c1ccc(Nc2nc(N3CCc4ccccc4C3)c3ccccc3n2)cc1 [Example 18, 2-(Phenylamino)-4-(1,2,3,4-Tetrahydroisoquinoline-2-Yl)Quinazoline Hydrochloride]	61.67	600	0.29
CN(c1ccccc1)c1nc(N2CCc3ccccc3C2)c2ccccc2n1 [Example 19, 2-(N-Methylphenylamino)-4-(1,2,3,4-Tetrahydroisoquinoline-2-Yl)QuinazolineHydrochloride]	1.83	5200	0.68
CN(c1ccc(F)cc1)c1nc(N2CCc3ccccc3C2)c2ccccc2n1.Cl [Example 20, 2-(4-Fluoro-N-Methylphenyl-Amino)-4-(1,2,3,4-Tetrahydroisoquinoline-2-Yl)Quinazoline Hydrochloride]	1.10	8400	0.92
Cc1ccccc1Nc1nc(N2CCc3ccccc3C2)c2ccccc2n1 [Example 21, 2-(2-Methylphenylamino)-4-(1,2,3,4-Tetrahydroisoquinoline-2-Yl)QuinazolineHydrochloride]	6.17	1200	0.38
Cc1cc(F)ccc1Nc1nc(N2CCc3ccccc3C2)c2ccccc2n1.Cl [Example 22, 2-(4-Fluoro-2-Methylphenyl -Amino)-4-(1,2,3,4-Tetrahydroisoquinoline-2-Yl)Quinazoline Hydrochloride]	11.29	700	0.64
Fc1ccc(Nc2nc(N3CCc4ccccc4C3)c3ccccc3n2)cc1 [Example 23, 2-(4-Fluorophenylamino)-4-(1,2,3,4-Tetrahydroisoquinoline-2-Yl)QuinazolineHydrochloride]	4.30	2000	0.44
CC1c2ccccc2CCN1c1nc(N(C)c2ccccc2)nc2ccccc12.Cl (stereo not drawn) [Example 24, 2-(N-Methylphenylamino)-4-(1-Methyl-1,2,3,4-Tetrahydroisoquinoline-2-Yl)Quinazoline Hydrochloride]	~ 1.29	~12500	0.36
CC1c2ccccc2CCN1c1nc(Nc2ccc(F)cc2)nc2ccccc12.Cl (stereo not drawn) [Example 25, 2-(4-Fluorophenylamino)-4-(1-Methyl-1,2,3,4-Tetrahydroisoquinoline-2-Yl)Quinazoline Hydrochloride]	5.88	2700	0.50
Cc1cc(F)ccc1Nc1nc(N2CCc3ccccc3C2C)c2ccccc2n1.Cl (stereo not drawn) [Example 26, 2-(4-Fluoro-2-Methylphenyl-Amino)-4-(1-Methyl-1,2,3,4-Tetrahydroisoquinoline-2-Yl) Quinazoline Hydrochloride]	46.00	400	0.25
Cc1cc(F)ccc1Nc1nc(N2CCc3cccc4c3C2CC4)c2ccccc2n1.Cl (stereo not drawn) [Example 27, 2-(4-Fluoro-2-Methylphenyl-Amino)-4-(1,8-Ethano-1,2,3,4-Tetrahydroisoquinoline-2-Yl) Quinazoline Hydrochloride]	1.97	2900	0.30
COc1cccc2c(N3CCc4ccccc4C3)nc(Nc3ccccc3)nc12.Cl [Example 28, 8-Methoxy-2-(phenylamino)-4-(1,2,3,4-Tetrahydroisoquinoline-2-Yl)Quinazoline Hydrochloride]	6.92	1200	0.64
COc1cccc2c(N3CCc4ccccc4C3)nc(N(C)c3ccccc3)nc12.Cl [Example 29, 8-Methoxy-2-(N-Methylphenyl-Amino)-4-(1,2,3,4-Tetrahydroisoquinoline-2-Yl)Quinazoline Hydrochloride]	1.47	4900	0.84
COc1cccc2c(N3CCc4ccccc4C3)nc(Nc3ccc(F)cc3)nc12.Cl [Example 30, 8-Methoxy-2-(4-Fluorophenyl-Amino)-4-(1,2,3,4-Tetrahydroisoquinoline-2-Yl)Quinazoline Hydrochloride]	3.27	2200	0.76
COc1cccc2c(N3CCc4ccccc4C3)nc(Nc3ccc(F)cc3C)nc12.Cl [Example 31, 8-Methoxy-2-(4-Fluoro-2-Methyl -Phenylamino)-4-(1,2,3,4-Tetrahydroisoquinoline-2-yl) Quinazoline Hydrochloride]	5.13	2000	0.79
COc1cccc2c(N3CCc4ccccc4C3)nc(N(C)c3ccc(F)cc3)nc12.Cl [Example 32, 8-Methoxy-2-(4-Fluoro-N-Methyl-Phenylamino)-4-(1,2,3,4-Tetrahydroisoquinoline-2-Yl) Quinazoline Hydrochloride]	> 0.58	> 16000	0.43
COc1cccc2c(N3CCc4ccccc4C3C)nc(Nc3ccc(F)cc3)nc12.Cl (stereo not drawn) [Example 33, 8-Methoxy-2-(4-Fluorophenyl-Amino)-4-(1-Methyl-1,2,3,4-Tetrahydroisoquinoline-2-Yl) Quinazoline Hydrochloride]	1.22	2300	0.79
COc1cccc2c(N3CCc4ccccc4[C@H]3C)nc(Nc3ccc(F)cc3C)nc12.Cl [Example 35, (R)-8-Methoxy-2-(4-Fluoro-2-Methylphenylamino)-4-(1-Methyl-1,2,3,4-Tetrahydroisoquinoline-2-Yl)Quinazoline Hydrochloride]	2.83	1800	0.79
COc1cccc2c(N3CCc4ccccc4[C@@H]3C)nc(Nc3ccc(F)cc3C)nc12.Cl [Example 36, (S)-8-Methoxy-2-(4Fluoro-2-Methylphenylamino)-4-(1-Methyl-1,2,3,4-Tetrahydroisoquinoline-2-Yl)Quinazoline Hydrochloride]	1.28	4000	0.67
